Measured values from patent US20140165223A1, “TNF SUPERFAMILY TRIMERIZATION INHIBITORS” (B.S.R.C. "Alexander Fleming", priority 2011, published 2014).
Each block holds one compound with its values, some of them ahead of it.

Key:
BAFFR-Fc = assay: BAFF/BAFF receptor ELISA; format: binding; settings: serial dilutions of human BAFFR-Fc
Source text: (§1) Glycine at codon 278 of mouse RANKL is highly conserved among various members of the TNF superfamily. In order to investigate whether this glycine to arginine substitution is also critical for trimerization in other TNF superfamily members, we reproduced this mutation in human BAFF (BAFF^G249R), a cytokine that activates B lymphocytes. Thus, we produced recombinant GST-BAFF in E coli and subsequently the soluble BAFF was released from GST by proteolytic cleavage. […] To examine whether soluble BAFF^G249R binds to BAFF receptor (BAFFR), serial dilutions of human BAFFR-Fc were incubated with immobilized soluble BAFF or BAFF^G249R (FIG. 21B). […] Thus, substitution of this conserved glycine abrogates trimerization not only in RANKL but also in other TNF superfamily members such as TNF, BAFF and possibly in many more.
Nunc plates were coated with 3 μg/ml recombinant soluble human BAFF or BAFF^G249R and incubated with increasing amount of recombinant human BAFFR-Fc (R&D Systems). BAFFR binding was detected with a horseradish peroxidase (HRP) conjugated goat anti-human IgG (Fc) (SouthernBiotech, Birmingham, USA) using o-phenylenediamine (OPD) substrate (Thermo Scientific Pierce) that was measured at 490 nm.

BAFF = molecular target: T1, BAFF (Homo sapiens, UniProt Q9Y275); assay: BAFF cross-linking and Western (trimer formation); format: biochemical; settings: DSS cross-linking
T1 construct: a cDNA encoding the core ectodomain of human BAFF residues 134-285 (17.5 kD), with or without the G249R substitution; GST (N, cleaved yes); made in house; host or cells: E. coli BL21
Source text: as §1
The chemical cross-linking reagent disuccinimidyl suberate (DSS, Sigma) was used to examine the trimeric property of BAFF as previously described (Douni et al., 2012). Various amounts of BAFF proteins in PBS buffer (pH 7.5) were mixed with 1 mM DSS (the molar ratio of DSS is 10:1). The cross-linking reactions were carried out for 1 hour at room temperature and terminated with 50 mM Tris (pH 7.5) for 30 minutes. Proteins from reaction mixtures were separated on 12% SDS-PAGE and proceeded in Western blot using a polyclonal anti-BAFF antibody (PeproTech).

human RANKL = molecular target: T2, human RANKL (Homo sapiens, UniProt O14788); assay: RANKL-mediated osteoclastogenesis assay with human RANKL; format: cell-based
T2 construct: purchased Peprotech
T2 sequence (O14788 143-317 limits assumed): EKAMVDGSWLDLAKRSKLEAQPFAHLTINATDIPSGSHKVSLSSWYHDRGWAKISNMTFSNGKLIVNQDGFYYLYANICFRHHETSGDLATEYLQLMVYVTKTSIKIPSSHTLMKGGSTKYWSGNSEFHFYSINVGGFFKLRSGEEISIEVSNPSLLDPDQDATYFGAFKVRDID
Source text: However, SPD304 contains a potentially toxic 3-substituted indole moiety that produces reactive intermediates that possibly cause toxicities by covalently binding to nucleophilic residues of protein and/or DNA. […] These small molecules have been also tested as regards their effect on cell toxicity (FIG. 14C).
BM cells were collected after flushing out of femurs and tibiae, subjected to gradient purification using FICOLL-PAQUE™ (GE Healthcare), plated in 96-well plates at a density of 6×10^4 cells per well and cultured in αMEM medium (GIBCO) containing 10% fetal bovine serum supplemented with 50 ng/ml human RANKL (Peprotech) and 25 ng/ml M-CSF (R&D Systems) for 5 days. […] Osteoclasts were stained for TRAP activity (Sigma).

[1] = molecular target: T3, binding of human RANKL to its receptor RANK (Homo sapiens, UniProt O14788); assay: RANKL/RANK ELISA; settings: peptides 3-100 μM, dose dependent
T3 construct: a cDNA encoding the core ectodomain of human RANKL residues 143-317 (20 kD), was cloned into pGEX-6P-1; GST (N, cleaved yes); host or cells: Escherichia coli BL21 (RANKL)
T3 sequence (O14788 143-317): T2 sequence (O14788 143-317 limits assumed)
Procedure: Nunc plates were coated with 100 μl of 250 ng/ml recombinant soluble human RANK-Fc (R&D Systems) overnight. Recombinant soluble human RANKL at 200 ng/ml was pre-incubated with increasing amounts of peptides (3-100 μM) for 1 hour at 37° C. and was added in the RANK-coated wells. RANKL binding was detected with a polyclonal goat anti-RANKL antibody (R&D Systems), followed by a horseradish peroxidase (HRP) conjugated horse anti-goat IgG (Vector) using o-phenylenediamine (OPD) substrate (Thermo Scientific Pierce) that was measured at 490 nm.

osteoclast precursors = assay: MTT survival assay in osteoclast precursors; format: cell-based
Procedure: (§2) However, SPD304 contains a potentially toxic 3-substituted indole moiety that produces reactive intermediates that possibly cause toxicities by covalently binding to nucleophilic residues of protein and/or DNA. […] Therefore, we investigated the potential of testing SPD304 derivatives designed to be less toxic with higher specificity for human RANKL. […] These small molecules have been also tested as regards their effect on cell toxicity (FIG. 14C).
(§3) Bone marrow (BM) cells were plated in 96-well plates at a density of 10^5 cells per well after gradient purification using FICOLL-PAQUE™ (GE Healthcare). BM cells were cultured in αMEM medium (GIBCO) containing 10% fetal bovine serum supplemented with 25 ng/ml M-CSF (R&D Systems) in the presence of the tested compounds at concentrations from 1-20 μM for 2 days (0.1% DMSO). Serum free a-MEM medium containing 0.5 mg/ml MTT [3-(4,5-Dimethylthiazol-2-yl)-2,5-diphenyltetrazolium bromide] was added for 2 hours in a 37° C. CO2 incubator. After removal of the MTT solution, DMSO was added to extract the dye from the cells and cell viability was accessed at 550 nm.

[2] = MTT survival assay in osteoclast precursors; format: cell-based; settings: M-CSF, 1-20 μM, 2 days, read-out: IC50 in MTT survival assay (cell toxicity)
Procedure: as §2, §3

soluble mouse RANKL = molecular target: T4, soluble mouse RANKL (Mus musculus, UniProt O35235); assay: Soluble mouse RANKL preincubated with SPD304: native gel and DSS cross-linking; format: biochemical
T4 construct: a cDNA encoding the core ectodomain of murine RANKL residues 158-316, with or without the G278R substitution; GST (N, cleaved yes); made in house; host or cells: Escherichia coli BL21
T4 sequence (O35235 158-316): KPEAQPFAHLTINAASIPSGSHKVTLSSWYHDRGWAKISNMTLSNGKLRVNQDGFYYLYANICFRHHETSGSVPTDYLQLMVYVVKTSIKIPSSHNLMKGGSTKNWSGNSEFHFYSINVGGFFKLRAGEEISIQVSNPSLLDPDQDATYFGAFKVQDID
Procedure: FIG. 13. Effect of SDP304 on RANKL structure. (Panel A) RANKL dimer with SPD304 located on optimum binding position. G278 is shown with space-filled atoms and SPD304 with doted surface. Cyan and green ribbons represent the two RANKL monomers. Diagram created using PYMOL v1.3. (Panel B) Recombinant WT soluble mouse RANKL (60 ng) was preincubated for 1 hour at 37° C. either with SPD304 at various concentrations from 6-200 μM or without SPD304 (−), resolved on native gel and detected by Western blotting using a polyclonal antibody against RANKL. (Panel C) Recombinant soluble mouse RANKL was preincubated with SPD304 at increasing concentrations from 6-100 μM, was cross-linked with DSS, run on 12% SDS-PAGE and detected by Western blot using an anti-RANKL polyclonal antibody. A representative figure of three independent experiments is shown for Western blots.
Experimental evidence on the TNF analogue and in silico binding studies on mouse RANKL confirm that the optimal binding position of SPD304, causing trimer inhibition, is located very close (<4 Å) to the G278 mutation position in the structure (FIG. 13, Panel A). To experimentally confirm the interference of the SPD304 with the RANKL structure, soluble mouse RANKL was preincubated with increasing concentrations of SPD304 (6-200 μM) and analyzed in native gels showing the natural conformation of RANKL protein (FIG. 13, Panel B). […]

TNF = TNF (Homo sapiens, UniProt P01375); settings: cited from earlier work
Sequence of TNF (P01375 77-233 limits assumed): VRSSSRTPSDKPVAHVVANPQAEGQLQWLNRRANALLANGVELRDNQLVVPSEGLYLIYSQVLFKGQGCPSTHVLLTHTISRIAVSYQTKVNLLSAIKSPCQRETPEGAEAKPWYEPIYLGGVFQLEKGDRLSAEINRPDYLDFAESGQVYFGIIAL

GST-RANKL = molecular target: T5, GST-RANKL (Mus musculus, UniProt O35235); assay: Ex vivo RANKL-induced osteoclast formation (BM cells, M-CSF + GST-RANKL, TRAP staining); format: cell-based; settings: BM cells, 25 ng/ml M-CSF, 80 ng/ml GST-RANKL
T5 construct: a cDNA encoding the core ectodomain of murine RANKL residues 158-316, with or without the G278R substitution; made in house; host or cells: Escherichia coli BL21
T5 sequence (O35235 158-316): T4 sequence (O35235 158-316)
Procedure: Instead, WT GST-RANKL (ratio 1:0) induced formation of TRAP+ giant osteoclasts (FIGS. 5A-5C). […] Incubation of WT GST-RANKL with GST at similar concentrations (12.5-100 ng/ml), didn't affect the formation of osteoclasts.
A novel small molecule inhibitor of TNF trimerization, named SPD304, has been recently reported^[35] to interact with glycine 122 (G122) that corresponds to G278 in RANKL.
BM cells were collected after flushing out of femurs and tibiae, subjected to gradient purification using FICOLL-PAQUE™ (GE Healthcare), plated in 24-well plates at a density of 5×10^5 cells per well and cultured in αMEM medium (GIBCO) containing 10% fetal bovine serum supplemented with 40 ng/ml RANKL (R&D Systems) and 25 ng/ml M-CSF (R&D Systems) for 5 days. Similarly, splenocytes were collected, plated in 24-well plates at a density of 10^6 cells per well and cultured in the presence of recombinant RANKL and M-CSF for 6 days. GST-RANKL^G278R was pre-incubated with WT GST-RANKL at room temperature for 20 min, prior to the stimulation of the BM cell cultures, in order to enable exchange of the RANKL variants and heterotrimer formation. Small molecule SPD304 (Sigma-Aldrich) was pre-incubated with 80 ng/ml GST-RANKL at various concentrations from 0.25 to 2 μM in αMEM medium for 1 hour at room temperature and then added to culture. Osteoclasts were stained for TRAP activity.

binding to BAFF receptor (BAFFR-Fc): cannot bind to its receptor
BAFF trimer assembly (BAFF): failure of spontaneous trimer assembly
Compound: BAFF^G249R: soluble human BAFF residues 134-285 with the G249R substitution

Compound: HFYSINVGRFFK (RANKL fragment) [peptide 2]
inhibition of RANKL function in RANKL-dependent osteoclastogenesis assays (human RANKL; peptides at 50 μM (FIG. 16A)): inhibited the function of RANKL
inhibition of binding of human RANKL to RANK [1]: inhibit the binding of human RANKL to its receptor RANK

formation of multinuclear TRAP+ osteoclasts (GST-RANKL; SPD304 at 2 μM): completely inhibited
Compound: Cc1cc2occ(CN(C)CCN(C)Cc3cn(-c4cccc(C(F)(F)F)c4)c4ccccc34)c(=O)c2cc1C [SPD304, 6,7-Dimethyl-3-[[methyl[2-[methyl[[1-[3-(trifluoromethyl)phenyl]-1H-indol-3-yl]methyl]amino]ethyl]amino]methyl]-(4H-1-Benzopyran-4-one)]
toxic concentrations in MTT survival assay (osteoclast precursors): above 5 μM
IC50 at 2 days [2]: 3.4 µM
inhibition of human RANKL function in osteoclastogenesis (human RANKL; 2 μM): effective in inhibiting human RANKL function
RANKL forms after chemical cross-linking (soluble mouse RANKL; SPD304 6-100 μM, DSS): dramatic increase of RANKL dimers and monomers
RANKL conformation in native gel (soluble mouse RANKL; SPD304 6-200 μM, 1 hour at 37° C.): a second band of lower molecular weight was also evident
inhibition of TNF trimerization and function (TNF): effectively inhibits TNF trimerization and function
formation of TRAP+ multinucleated osteoclasts (GST-RANKL; SPD304 at 1 μM): attenuated both the number and the size of TRAP+ multinucleated cells
